Experimental data taken from ChEMBL document CHEMBL1250444, “Nitric oxide activates TRP channels by cysteine S-nitrosylation” (Nat Chem Biol, 2006).
Numbering of substitutions follows the chain as printed. Activity calls are given as the source filed them. No cut-off for these calls is given here.

Tests used:
[1] = biological target: T1, Short transient receptor potential channel 5 (Homo sapiens) (UniProt Q9UL62); test: Induction of S-nitrosylation of TRPC5 in HEK cells assessed as increase in Ca2+ level from extracellular space at 10 uM; format: cell-based; settings: HEK293
T1 sequence (whole entry): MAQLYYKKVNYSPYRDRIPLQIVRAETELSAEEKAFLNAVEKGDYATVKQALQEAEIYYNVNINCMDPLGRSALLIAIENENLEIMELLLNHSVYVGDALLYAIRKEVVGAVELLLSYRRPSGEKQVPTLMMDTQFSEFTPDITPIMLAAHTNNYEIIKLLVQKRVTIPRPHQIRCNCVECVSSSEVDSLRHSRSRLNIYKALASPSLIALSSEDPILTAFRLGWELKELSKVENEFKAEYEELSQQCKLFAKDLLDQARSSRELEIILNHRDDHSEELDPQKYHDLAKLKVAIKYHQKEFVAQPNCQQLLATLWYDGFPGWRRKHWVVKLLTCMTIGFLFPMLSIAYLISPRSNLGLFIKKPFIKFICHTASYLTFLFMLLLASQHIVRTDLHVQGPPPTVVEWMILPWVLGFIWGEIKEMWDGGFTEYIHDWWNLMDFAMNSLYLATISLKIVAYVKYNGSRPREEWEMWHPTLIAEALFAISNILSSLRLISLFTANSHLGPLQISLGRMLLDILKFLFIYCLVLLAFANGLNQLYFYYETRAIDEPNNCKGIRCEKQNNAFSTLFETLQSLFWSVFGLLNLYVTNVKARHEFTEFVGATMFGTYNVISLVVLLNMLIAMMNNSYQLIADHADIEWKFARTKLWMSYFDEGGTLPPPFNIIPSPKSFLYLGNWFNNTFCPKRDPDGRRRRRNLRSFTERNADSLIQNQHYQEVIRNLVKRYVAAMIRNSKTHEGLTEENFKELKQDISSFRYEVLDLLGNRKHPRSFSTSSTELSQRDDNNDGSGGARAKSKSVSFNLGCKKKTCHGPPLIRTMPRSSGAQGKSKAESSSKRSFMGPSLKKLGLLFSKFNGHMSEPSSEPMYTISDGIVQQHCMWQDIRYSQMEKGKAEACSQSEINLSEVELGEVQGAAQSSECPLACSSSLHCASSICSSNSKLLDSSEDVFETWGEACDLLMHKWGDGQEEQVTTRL

[2] = biological target: T1, Short transient receptor potential channel 5 (Homo sapiens); test: Induction of S-nitrosylation of TRPC5 in HEK cells assessed as inhibition of incorporation of DTNB-2Bio at 5 mM; format: cell-based; settings: HEK293
HEK293 [3] = test: Induction of rat TRPV1 Cys616 mutant S-nitrosylation expressed in HEK cells assessed as increase in Ca2+ level from extracellular space at 0.1 to 1 mM; format: cell-based
[4] = biological target: T1, Short transient receptor potential channel 5 (Homo sapiens); test: Activation of TRPC5 expressed in BAEC expressing TRPC5 siRNA assessed as increase in Ca2+ level from extracellular space at 300 uM
[5] = system: T2, Short transient receptor potential channel 5 (Homo sapiens), Q9UL62 [C553S]; test: Decrease in TRPC5 C553S mutant S-nitrosylation in HEK cells assessed as inhibition of incorporation of DTNB-2Bio at 30 uM relative to control; format: cell-based; settings: HEK293
T2 sequence (whole entry): T1 sequence (whole entry) with C553S

[6] = biological target: Transient receptor potential cation channel subfamily V member 1 (Rattus norvegicus) (UniProt O35433); test: Activation of rat TRPV1 expressed in HEK cells assessed as increase in Ca2+ level from extracellular space at 10 uM; format: cell-based; settings: HEK293
HEK293 [7] = test: Activation of rat TRPV1 Cys616 mutant expressed in HEK cells assessed as increase in Ca2+ level from extracellular space at 10 uM; format: cell-based
[8] = biological target: T1, Short transient receptor potential channel 5 (Homo sapiens); test: Activation of TRPC5 expressed in BAEC expressing TRPC5 siRNA assessed as increase in Ca2+ level from extracellular space at 100 uM

Chain of Transient receptor potential cation channel subfamily V member 1 (Rattus norvegicus) (O35433 whole entry): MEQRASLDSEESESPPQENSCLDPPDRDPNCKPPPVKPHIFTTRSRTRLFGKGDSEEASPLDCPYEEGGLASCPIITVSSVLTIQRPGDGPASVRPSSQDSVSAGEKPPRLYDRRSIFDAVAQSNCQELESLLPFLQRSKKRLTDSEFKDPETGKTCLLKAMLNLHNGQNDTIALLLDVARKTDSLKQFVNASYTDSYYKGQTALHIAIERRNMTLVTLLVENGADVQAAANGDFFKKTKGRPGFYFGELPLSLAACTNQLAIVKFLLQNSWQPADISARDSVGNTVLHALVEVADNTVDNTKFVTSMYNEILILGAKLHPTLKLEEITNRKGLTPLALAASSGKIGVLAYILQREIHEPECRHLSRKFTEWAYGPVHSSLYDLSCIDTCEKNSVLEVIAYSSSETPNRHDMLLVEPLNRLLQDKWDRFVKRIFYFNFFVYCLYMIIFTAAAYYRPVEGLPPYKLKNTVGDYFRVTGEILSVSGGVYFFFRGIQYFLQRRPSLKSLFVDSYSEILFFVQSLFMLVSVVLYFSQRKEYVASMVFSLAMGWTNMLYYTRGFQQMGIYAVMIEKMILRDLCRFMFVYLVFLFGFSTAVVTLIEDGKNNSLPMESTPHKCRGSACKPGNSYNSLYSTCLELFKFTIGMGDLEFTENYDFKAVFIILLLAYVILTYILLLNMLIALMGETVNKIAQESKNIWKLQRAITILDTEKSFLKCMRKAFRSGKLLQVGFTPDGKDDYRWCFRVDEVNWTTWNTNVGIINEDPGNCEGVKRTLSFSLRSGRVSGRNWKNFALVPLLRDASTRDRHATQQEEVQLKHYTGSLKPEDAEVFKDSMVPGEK

Compound	Activity [1]	Activity [2]	Activity (HEK293 [3])	Activity [4]	Activity [5]	Activity [6]	Activity (HEK293 [7])	Activity [8]
CC(=O)N[C@@H](C(=O)O)C(C)(C)SN=O (racemic)	Active	Active	inactive	inactive	–	–	–	–
O=[N+]([O-])c1ccc(SSc2ccc([N+](=O)[O-])cn2)nc1	–	–	–	–	Active	Active	inactive	inactive
